Literature values in patent US11452751B2, “Medication dispensing system” (priority 2015, dated 2022).

Legend:
[1] = tested on: estrogen receptor-positive and estrogen receptor-negative breast cancer cell lines; conditions: inducing apoptosis in a concentration-dependent manner
[2] = tested on: nontumorigenic mammary cells
prostate cell line, PC-3 = conditions: Ruiz et al. 1999
[3] = molecular target: T1, androgen receptor in the prostate gland (Homo sapiens, UniProt P10275)
T1 construct: host or cells: prostate gland
T1 sequence (P10275 1-920): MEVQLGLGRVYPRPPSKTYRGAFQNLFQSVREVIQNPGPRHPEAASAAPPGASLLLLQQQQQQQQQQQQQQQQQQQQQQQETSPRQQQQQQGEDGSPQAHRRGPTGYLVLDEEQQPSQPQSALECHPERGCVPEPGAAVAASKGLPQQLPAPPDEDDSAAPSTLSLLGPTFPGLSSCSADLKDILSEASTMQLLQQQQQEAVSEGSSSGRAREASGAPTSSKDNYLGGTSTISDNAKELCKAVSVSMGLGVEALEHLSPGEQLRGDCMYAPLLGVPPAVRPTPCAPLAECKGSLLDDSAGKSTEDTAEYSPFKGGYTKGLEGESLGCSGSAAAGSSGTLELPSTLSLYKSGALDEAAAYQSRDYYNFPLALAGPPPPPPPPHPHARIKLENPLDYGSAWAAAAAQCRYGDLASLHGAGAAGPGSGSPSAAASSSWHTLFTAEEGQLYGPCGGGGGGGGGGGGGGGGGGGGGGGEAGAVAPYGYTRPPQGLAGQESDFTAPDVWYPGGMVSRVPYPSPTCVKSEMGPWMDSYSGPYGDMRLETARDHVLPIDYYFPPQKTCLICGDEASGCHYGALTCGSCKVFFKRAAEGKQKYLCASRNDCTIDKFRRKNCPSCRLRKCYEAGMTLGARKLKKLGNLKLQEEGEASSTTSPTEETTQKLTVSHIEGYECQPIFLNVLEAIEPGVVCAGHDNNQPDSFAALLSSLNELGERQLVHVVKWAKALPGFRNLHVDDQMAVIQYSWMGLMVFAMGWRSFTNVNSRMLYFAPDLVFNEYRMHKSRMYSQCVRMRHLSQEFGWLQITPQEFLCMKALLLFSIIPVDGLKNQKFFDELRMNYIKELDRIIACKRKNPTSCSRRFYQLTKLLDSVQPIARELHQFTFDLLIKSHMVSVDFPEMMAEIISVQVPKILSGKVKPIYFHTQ

CB1 receptor = CB1 receptor (Homo sapiens, UniProt P21554)
[4] = not given; remark: listed apart in the source

Sequence of CB1 receptor (P21554 whole entry): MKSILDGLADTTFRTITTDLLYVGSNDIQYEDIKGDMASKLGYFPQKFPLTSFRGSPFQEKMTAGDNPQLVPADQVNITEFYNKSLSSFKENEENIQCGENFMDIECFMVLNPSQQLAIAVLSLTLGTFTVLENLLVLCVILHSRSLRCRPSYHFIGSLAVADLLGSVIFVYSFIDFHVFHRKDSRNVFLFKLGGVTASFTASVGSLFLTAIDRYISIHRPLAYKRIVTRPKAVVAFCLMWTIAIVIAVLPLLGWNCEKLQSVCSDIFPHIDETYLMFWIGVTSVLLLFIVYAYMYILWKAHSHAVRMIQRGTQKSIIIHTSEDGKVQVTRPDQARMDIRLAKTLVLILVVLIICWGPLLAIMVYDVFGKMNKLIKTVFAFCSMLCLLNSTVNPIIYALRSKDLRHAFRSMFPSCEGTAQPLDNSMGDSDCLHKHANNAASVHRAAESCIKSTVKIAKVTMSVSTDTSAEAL

C=C(C)[C@@H]1CCC(C)=C[C@H]1c1c(O)cc(CCCCC)cc1O [CBD, Cannabidiol]
affinity to cannabinoid receptors (cannabinoid receptors): low affinity | survival of breast cancer cell lines [1]: inhibited the survival | effect on nontumorigenic mammary cells [2]: little effect

CCCCCc1cc(O)c2c(c1)OC(C)(C)[C@@H]1CCC(C)=C[C@@H]21 [THC, Tetrahydrocannabinol]
pain sensitivity (cold-pressor test after administration, dronabinol oral capsules 10 mg or 20 mg): decreased pain sensitivity | duration of effects (compared with smoked marijuana): lasted longer than smoked marijuana | time after administration at which pain reduction effects were felt (on the average, cold-pressor test): 180 min | apoptosis (prostate cell line, PC-3): causes apoptosis | specific binding of dihydroxytestosterone to the androgen receptor [3]: inhibits specific binding

CCCc1cc(O)c2c(c1)OC(C)(C)[C@@H]1CCC(C)=C[C@@H]21 [THCV, Tetrahydrocannabivarin]
mode of action at CB1 receptor (CB1 receptor): CB1 receptor antagonist

vitamin E
reduction in breast cancer incidence ([4]; pre-menopausal women with a family history of breast cancer, highest quantity of vitamin E consumed): 43% | risk reduction of breast cancer ([4]; women without a family history of breast cancer): 16%
